The numbers were not newly measured in patent US11612885B2, “Methods, compositions and kits useful for pH gradient cation exchange chromatography” (WATERS TECHNOLOGIES CORPORATION, priority 2018, dated 2023), which cites them from elsewhere.

Molecules are shown by their SMILES.

The conditions of the first data set: background statement; exposure.
Regarding `C1CNCCN1` [Piperazine, 1,4-Diazinane], the known toxicity entry was “acute respiratory and skin irritation as well as organ damage with prolonged exposure”.

The conditions of another data set: buffer salts used in the Examples.
With `NC(=O)CNCCS(=O)(=O)O` [ACES, 2-(carbamoylmethylamino)ethanesulfonic acid], the pKa1 is 6.9. As for `CC(C)(N)CO` [AMP, 2-amino-2-methyl-1-propanol], the pKa1 is on record as 9.7. Regarding `CC(N)(CO)CO` [AMPD, 2-amino-2-methyl-1,3-propanediol], the pKa1 is 8.8. Consider `OCC(CO)(CO)NCCCNC(CO)(CO)CO` [BIS-TRIS Propane, 1,3-bis(tris(hydroxymethyl)methylamino)propane], for which the pKa1 is reported as 6.8 and the pKa2 is listed as 9.1. As for `O=S(=O)(O)CCCNC1CCCCC1` [CAPS, 3-(Cyclohexylamino)-1-propanesulfonic acid], the pKa1 was 10.4.

Consider `NCC(=O)O` [Gly, Aminoethanoic acid], for which the pKa1 is on record as 2.4 and the pKa2 is recorded as 8.1. Consider `NCC(=O)NCC(=O)O` [Gly-Gly, 2-[(2-Aminoacetyl)amino] acetic acid], for which the pKa1 is on record as 3.1 and the pKa2 is listed as 8.1.

With `c1c[nH]cn1` [Imidazole, 1,3-diazacyclopenta-2,4-diene], the pKa1 is reported as 7.0. As for `O=C(O)CCC(=O)O` [Succinic Acid, 1,4-butandioic acid], the pKa1 is 4.1 and the pKa2 is 5.5.
